Data published in US9492468B2, “Methods and compositions for treatment of acute heart failure” (PERICOR THERAPEUTICS, INC., priority 2008, dated 2016).
Structures can show the parent of a compound that is named as a salt.

Tested on: dogs with advanced heart failure
Assay: Dose escalation / bolus plus infusion study, hemodynamic and ventriculographic measures
Type: in vivo, dog
Conditions: for Effect on EF (LVEF) / Effect on ESV: dose dependent; for Hemodynamic and ventriculographic benefits after discontinuation: one hour after discontinuation of infusion
Method: Studies were performed in purpose-bred, healthy and conditioned mongrel dogs weighing between 20 and 30 kg. The study was approved by Henry Ford Health System Institutional Animal Care and Use Committee and conformed to the National Institute of Health “Guide and Care for Use of Laboratory Animals” and the “Position of the American Heart Association on Research Animal Use” (Position of the American Heart Association on Research Animal Use. Circulation 1985; 71; 49A-50A).
Chronic LV dysfunction and failure was produced by multiple sequential intracoronary embolizations with polystyrene Latex; coronary microembolizations were performed during cardiac catheterization under general anesthesia and sterile conditions (Sabbah H N, et al. Am J Physiol (1991) 260:H1379-84; Sabbah H N, et al. Circulation (1994) 89:2852-9; Sabbah H N, et al. Am J Cardiol 99:41 A-46A, (2007)). Anesthesia was induced using a combination of intravenous injections of oxymorphone hydrochloride (0.22 mg/kg) and diazepam (0.2-0.6 mg/kg). Plane of anesthesia was maintained throughout the study using 1% to 2% isoflurane. Left and right heart catheterizations were performed via a femoral arteriotomy and venotomy. Coronary microembolizations were discontinued when LV ejection fraction, determined angiographically, was about 25%. A period of 2 weeks was allowed after the last microembolization to ensure that infarctions produced by the last microembolizations have completely healed and heart failure was established before the study is undertaken.
Eight heart failure dogs described in Example 1 were used. Seven of 8 dogs underwent two studies, one with active drug GP-531 tartrate and one with vehicle (placebo) and 1 of 8 dogs underwent only one active drug GP-531 study. The order of active drug and placebo was randomized and performed about one week apart. In 6 of 8 dogs, after baseline hemodynamic, and ventriculographic measurements, vehicle was administered as a continuous intravenous infusion for one hour. At the end of one hour, the active drug GP-531 tartrate was administered in 3 escalating dose of continuous intravenous infusion with each dose maintained for one hour. At the end of the last drug dose, infusion was stopped and a washout period of one hour was instituted. The same infusion rates and times between doses were used when vehicle studies were performed. At the end of each hour, hemodynamic and angiographic measurements were made. Venous blood samples were obtained at baseline and at one hour after each dose. Blood samples (at least 10 mL) were centrifuged at 3000 rpm for 10 minutes and plasma withdrawn and placed in cryostorage tubes and stored upright at −20° C. for future use. In 2 of 8 dogs, active drug was administered as bolus followed by a constant infusion for 3 hours as noted below.
Active drug was used in dog groups as follows:
1. In 3 of 8 dogs, escalating doses of 30, 100 and 300 μg/kg/min GP-531 tartrate were used (Group I)
2. In another 3 of 8 dogs, escalating doses of 3, 10 and 30 μg/kg/min GP-531 tartrate were used (Group II).
3. In 1 of 8 dogs, active drug was administered as 700 μg/kg GP-531 tartrate bolus followed by a constant infusion of 10 μg/kg/min GP-531 tartrate for 3 hours.
4. In another 1 of 8 dogs, two active drug studies were performed. In one study, active drug was administered as 70 μg/kg bolus followed by a constant infusion of 1.0 μg/kg/min for 4 hours and in the second study, active drug was administered as 210 μg/kg bolus followed by a constant infusion of 3.0 μg/kg/min for 4 hours.
Study Primary End-Points were: (1) change in LV ejection fraction determined from ventriculography and (2) change in LV end-systolic and end-diastolic volume determined from ventriculography.
All hemodynamic measurements were made during left and right heart catheterizations in anesthetized dogs at each specified study time point. […]

[1] = Group I HF dogs n=3, iv 30 μg/kg/min, 1 h
[2] = Group I HF dogs n=3, iv 100 μg/kg/min, 1 h
[3] = Group I HF dogs n=3, iv 300 μg/kg/min, 1 h
[4] = Group II HF dogs n=3, iv 3 μg/kg/min, 1 h
[5] = Group II HF dogs n=3, iv 10 μg/kg/min, 1 h
[6] = Group II HF dogs n=3, iv 30 μg/kg/min, 1 h
[7] = 1 HF dog, 210 μg/kg bolus then 3.0 μg/kg/min for 4 h
[8] = 1 HF dog, 210 μg/kg bolus then 3.0 μg/kg/min, end of 4 h
[9] = 1 HF dog, 700 μg/kg bolus then constant infusion 10 m/kg/min (so in the source) for 3 h
[10] = 1 HF dog, 700 μg/kg bolus then constant infusion 10 m/kg/min (so in the source), end of 3 h
[11] = Group I HF dogs n=3, 1 h washout after 30/100/300 μg/kg/min
[12] = Group I HF dogs n=3, escalating 30, 100, 300 μg/kg/min, vs baseline
[13] = Group I HF dogs n=3, escalating 30, 100, 300 μg/kg/min, vs baseline, listed as GP-531 tartrate salt
[14] = Group II HF dogs n=3, 1 h washout after 3/10/30 μg/kg/min
[15] = Group II HF dogs n=3, escalating 3, 10, 30 μg/kg/min, not statistically significant vs baseline
[16] = Group II HF dogs n=3, escalating 3, 10, 30 μg/kg/min, vs baseline

Compound: NC(=O)c1ncn(C2OC(CNCc3ccccc3)C(O)C2O)c1N [GP-531, 5-amino-1-β-D-(5-benzylamino-5-deoxy-1-β-D-ribofuranosyl)imidazole-4 carboxamide]
- Effect on hemodynamic or ventriculographic measures of LV function (1 HF dog, 70 μg/kg bolus then 1.0 μg/kg/min for 4 h): no effects
- Cardiac output (CO) [1]: 1.90 ± 0.19 L/min
- Heart rate (HR) [1]: 88 ± 9 beats/min
- LV end-diastolic pressure (LVEDP) [1]: 11 ± 1 mmHg
- LV end-diastolic volume (EDV) [1]: 69 ± 6 mL
- LV end-systolic volume (ESV) [1]: 47 ± 4 mL
- Mean aortic pressure (mAoP) [1]: 70 ± 2 mmHg
- Stroke volume (SV) [1]: 22 ± 2 mL
- Systemic vascular resistance (SVR) [1]: 2995 ± 213 dynes-sec-cm^−5
- Cardiac output (CO) [2]: 2.06 ± 0.28 L/min
- Heart rate (HR) [2]: 90 ± 9 beats/min
- LV end-diastolic pressure (LVEDP) [2]: 10 ± 1 mmHg
- LV end-diastolic volume (EDV) [2]: 68 ± 4 mL
- LV end-systolic volume (ESV) [2]: 45 ± 4 mL
- Mean aortic pressure (mAoP) [2]: 69 ± 2 mmHg
- Stroke volume (SV) [2]: 23 ± 1 mL
- Systemic vascular resistance (SVR) [2]: 2792 ± 360 dynes-sec-cm^−5
- Cardiac output (CO) [3]: 2.06 ± 0.22 L/min
- Heart rate (HR) [3]: 88 ± 6 beats/min
- LV end-diastolic pressure (LVEDP) [3]: 11 ± 1 mmHg
- LV end-diastolic volume (EDV) [3]: 68 ± 4 mL
- LV end-systolic volume (ESV) [3]: 44 ± 4 mL
- Mean aortic pressure (mAoP) [3]: 73 ± 3 mmHg
- Stroke volume (SV) [3]: 23 ± 1 mL
- Systemic vascular resistance (SVR) [3]: 2886 ± 67 dynes-sec-cm^−5
- Cardiac output (CO) [4]: 1.47 ± 0.09 L/min
- Heart rate (HR) [4]: 80 ± 2 beats/min
- LV end-diastolic pressure (LVEDP) [4]: 12 ± 1 mmHg
- LV end-diastolic volume (EDV) [4]: 62 ± 2 mL
- LV end-systolic volume (ESV) [4]: 43 ± 2 mL
- Mean aortic pressure (mAoP) [4]: 70 ± 3 mmHg
- Stroke volume (SV) [4]: 18 ± 1 mL
- Systemic vascular resistance (SVR) [4]: 3870 ± 366 dynes-sec-cm^−5
- Cardiac output (CO) [5]: 1.45 ± 0.06 L/min
- Heart rate (HR) [5]: 82 ± 6 beats/min
- LV end-diastolic pressure (LVEDP) [5]: 12 ± 1 mmHg
- LV end-diastolic volume (EDV) [5]: 58 ± 4 mL
- LV end-systolic volume (ESV) [5]: 39 ± 3 mL
- Mean aortic pressure (mAoP) [5]: 65 ± 2 mmHg
- Stroke volume (SV) [5]: 19 ± 1 mL
- Systemic vascular resistance (SVR) [5]: 3379 ± 26 dynes-sec-cm^−5
- Cardiac output (CO) [6]: 1.64 ± 0.06 L/min
- Heart rate (HR) [6]: 80 ± 3 beats/min
- LV end-diastolic pressure (LVEDP) [6]: 12 ± 2 mmHg
- LV end-diastolic volume (EDV) [6]: 57 ± 4 mL
- LV end-systolic volume (ESV) [6]: 36 ± 3 mL
- Mean aortic pressure (mAoP) [6]: 69 ± 3 mmHg
- Stroke volume (SV) [6]: 21 ± 2 mL
- Systemic vascular resistance (SVR) [6]: 3388 ± 235 dynes-sec-cm^−5
- De-novo ventricular arrhythmias (HF dogs, iv 3 to 300 μg/kg/min): without triggering de-novo ventricular arrhythmias
- Hypotension (HF dogs, iv 3 to 300 μg/kg/min): without inducing hypotension

Compound: NC(=O)c1ncn(C2OC(CNCc3ccccc3)C(O)C2O)c1N (stereo not drawn) [GP-531 tartrate]
- Effect on CO [7]: minimal or modest changes
- Effect on HR [7]: modest reduction
- Effect on LVEDP [7]: modest reduction
- Effect on SV [7]: minimal or modest changes
- Effect on SVR [7]: minimal or modest changes
- Effect on mAoP [7]: modest reduction
- Effect on EDV [8]: essentially no change
- Increase in EF [8]: 44%
- Reduction in ESV [8]: ~20%
- Effect on CO [9]: minimal or modest changes
- Effect on HR [9]: modest reduction
- Effect on LVEDP [9]: substantial drop
- Effect on SV [9]: minimal or modest changes
- Effect on SVR [9]: minimal or modest changes
- Effect on mAoP [9]: modest reduction
- Increase in EF [10]: 30%
- Reduction in EDV [10]: ~10%
- Reduction in ESV [10]: 20%
- Cardiac output (CO) [11]: 1.72 ± 0.17 L/min
- Heart rate (HR) [11]: 85 ± 7 beats/min
- LV end-diastolic pressure (LVEDP) [11]: 13 ± 1 mmHg
- LV end-diastolic volume (EDV) [11]: 70 ± 5 mL
- LV end-systolic volume (ESV) [11]: 49 ± 4 mL
- Mean aortic pressure (mAoP) [11]: 73 ± 6 mmHg
- Stroke volume (SV) [11]: 20 ± 2 mL
- Systemic vascular resistance (SVR) [11]: 3445 ± 310 dynes-sec-cm^−5
- Effect on CO [12]: significant increase
- Effect on EDV [12]: modest and not statistically significant effect on reducing
- Effect on HR [12]: no effect
- Effect on LVEDP [12]: significantly decreased
- Effect on SV [12]: significant increase
- Effect on SVR [12]: decrease
- Effect on mAoP [12]: no effect
- Effect on EF (LVEF) [12]: increased
- Effect on ESV [12]: significantly decreased
- Effect on EF (LVEF) [13]: increase
- Effect on ESV [13]: significant decrease
- Hemodynamic and ventriculographic benefits after discontinuation (Group I HF dogs): attenuated but in many instances remained significantly better than baseline values
- Cardiac output (CO) [14]: 1.50 ± 0.02 L/min
- Heart rate (HR) [14]: 80 ± 5 beats/min
- LV end-diastolic pressure (LVEDP) [14]: 12 ± 1 mmHg
- LV end-diastolic volume (EDV) [14]: 59 ± 4 mL
- LV end-systolic volume (ESV) [14]: 40 ± 2 mL
- Mean aortic pressure (mAoP) [14]: 66 ± 3 mmHg
- Stroke volume (SV) [14]: 19 ± 2 mL
- Systemic vascular resistance (SVR) [14]: 3511 ± 176 dynes-sec-cm^−5
- Effect on CO [15]: modestly increased
- Effect on SV [15]: modestly increased
- Effect on SVR [15]: modestly decreased
- Effect on EDV [16]: no effects
- Effect on HR [16]: no effect
- Effect on LVEDP [16]: significantly decreased
- Effect on mAoP [16]: no effect
- Effect on EF (LVEF) [16]: increased
- Effect on ESV [16]: significantly decreased
- Effect on EF (LVEF) (Group II HF dogs n=3, escalating 3, 10, 30 μg/kg/min, vs baseline, listed as GP-531 tartrate salt): increase
- Hemodynamic and ventriculographic benefits after discontinuation (Group II HF dogs): attenuated but in many instances remained significantly better than baseline values
- Adverse positive chronotropic effects (HF dogs, iv 3 to 300 μg/kg/min): not associated with any adverse positive chronotropic effects
- LV systolic function (HF dogs, iv 3 to 300 μg/kg/min over at least one hour): can improve LV systolic function
- Effect on LVEF (FIG. 3) (bolus injection 700 μg/kg followed by 3 hour constant infusion 10 μg/kg/min): increase
